Test results taken from patent US6818780B2, “P-hydroxyphenyl propionic acid derivatives as antiproliferative agents” (Consejo Superior de Investigaciones Cientificas, priority 2000, dated 2004).

Test system: human peripheral blood mononuclear cells (CMSP)
Assay: Test on lymphocyte proliferation: human peripheral blood mononuclear cells (3H-thymidine incorporation), with or without rhIL-2
Type: cell-based
Conditions: 5 days; for Proliferation of human peripheral blood mononuclear cells, Con A 2 μg/ml (cpm ± DS) / Proliferation of human peripheral blood mononuclear cells, Medium (cpm ± DS) / Proliferation of human peripheral blood mononuclear cells, PHA 10 μg/ml (cpm ± DS) / Proliferation of human peripheral blood mononuclear cells, aCD3 5 μg/ml (cpm ± DS) / Proliferation of human peripheral blood mononuclear cells, aCD3 + Con A (cpm ± DS) / Proliferation of human peripheral blood mononuclear cells, aCD3 + PHA (cpm ± DS): no rhIL-2; for Proliferation of human peripheral blood mononuclear cells in the presence of rhIL-2, Con A 2 μg/ml (cpm ± DS) / Proliferation of human peripheral blood mononuclear cells in the presence of rhIL-2, Medium (cpm ± DS) / Proliferation of human peripheral blood mononuclear cells in the presence of rhIL-2, PHA 10 μg/ml (cpm ± DS) / Proliferation of human peripheral blood mononuclear cells in the presence of rhIL-2, aCD3 5 μg/ml (cpm ± DS) / Proliferation of human peripheral blood mononuclear cells in the presence of rhIL-2, aCD3 + Con A (cpm ± DS) / Proliferation of human peripheral blood mononuclear cells in the presence of rhIL-2, aCD3 + PHA (cpm ± DS): rhIL-2 100 UI/ml
From the text: Tests on Human Peripheral Blood Mononuclear Cells Material and Methods:
In order to study more deeply the effects of lactone on cell proliferation, we checked whether the effects described in the above section on cells of murine origin were specific to the cell type and the species or whether, on the other hand, these effects were xeno-independent. For this, we purified human peripheral blood mononuclear cells from healthy controls and we proceeded to study the possible effects of inhibition on the proliferative activity of peripheral blood mononuclear cells (CMSP) from humans, induced by different mitogenic agents acting alone and/or in costimulation with other mitogens and in the presence or absence of recombinant human interleukin 2 (rhIL-2).
Mitogens: Phytohaemaglutinin M (PHA) (Difco Lab., Detroit, Mich., USA), Concanavalin A (Con A, 2 μg/ml, Sigma Chemical Co., Mich., USA), Immobilised anti-CD3 (OKT3, 5 μg/ml, Ortho-mune, Orthodiagnostic System) and rhIL-2 (100 IU/ml, Hoffman-La Roche, N.J., USA).
All the reagents included in these tests were diluted in RPMI 1640 culture medium (Whitaker Bioproducts, Walkersville, USA) supplemented with 10% of decomplemented foetal calf serum (Biochrom K G, Berlin), L-glutamin (2 mM, Biochrom K G), Hepes (25 mM, Biochrom K G) and antibiotic (1% penicillin streptomycin, Difco Lab, Detroit, Mich., USA).
Also, all the mitogens were optimised in a dose response way in order to obtaining the maximum proliferative response after 5 days of culture.
Venous blood: The CMSP were obtained from venous blood extracted by antecubital venous puncture. 50 ml of blood were extracted to which were added 50 U of calcic heparin and the mixture was diluted 1/1 (vol/vol) with PSS.
Human mononucleated cells: In order to isolate the CMSP they were proceeded to be separated from the rest of the blood components by means of the formation of a density gradient on Ficoll. The cells thus obtained are resuspended in PSS and centrifuged at 400×g for 10 minutes (washing process) and then resuspended in PSS. This operation is repeated three times. In the last of them, PSS is replaced with complete medium.
General culture conditions: All cell cultures were developed under conditions of sterility in a vertical laminar flow chamber, using single-use sterile materials or materials sterilised in an autoclave or with ethylene oxide. The cultures were conserved in a stove kept at a temperature of 37° C., in an atmosphere with 5% CO2 and relative humidity of 95%. In the various experiments performed, the purified CMSP cell preparations were incubated in sterile dishes with 96 wells at concentrations of 5×10^4 cells/well (200 μl) in the presence of different concentrations of different mitogens for 5 days.
The method used for quantifying the cell proliferation was analysis of the incorporation of ^3H-thymidine (^3H-T) into DNA synthesised de novo, detecting the emission of β radiation from the dry extracts of cell cultures to which the tritiated base had been added before its finalisation and collection. The synthesis of DNA was done in triplicate on sterile dishes with 96 flat-bottom wells.
From 20 to 24 hour prior to terminating the cell culture, 1 μCi of ^3H-T was added to each well containing medium; the cultures were gathered by suction through a glass filter, using a Skatron culture collector for this.
The synthesis of DNA has been expressed in counts per minute (cpm). Each test was conducted in triplicate, with those data having a variability greater than 10% compared to the mean of the triplicate being rejected, since they could indicate a technical error or contamination in the culture. The cultures were carried out at a constant cell volume per well, as well as at a constant volume of 200 μl.
Negative Control: Cells in the Presence of Complete Culture Medium
Positive Control: Stimulation of Cells without the Presence of Lactone […]

## C=C1C(=O)OC(CCc2ccc(OC)cc2)C1C (stereo not shown) [lactone]
Lactone 0.0001 μg/ml
  Proliferation of human peripheral blood mononuclear cells, Con A 2 μg/ml (cpm ± DS): 75329 ± 9144 cpm
  Proliferation of human peripheral blood mononuclear cells, Medium (cpm ± DS): 3175 ± 1574 cpm
  Proliferation of human peripheral blood mononuclear cells, PHA 10 μg/ml (cpm ± DS): 76612 ± 15020 cpm
  Proliferation of human peripheral blood mononuclear cells, aCD3 5 μg/ml (cpm ± DS): 44721 ± 4082 cpm
  Proliferation of human peripheral blood mononuclear cells, aCD3 + Con A (cpm ± DS): 115090 ± 4133 cpm
  Proliferation of human peripheral blood mononuclear cells, aCD3 + PHA (cpm ± DS): 105395 ± 375 cpm
  Proliferation of human peripheral blood mononuclear cells in the presence of rhIL-2, Con A 2 μg/ml (cpm ± DS): 96972 ± 18274 cpm
  Proliferation of human peripheral blood mononuclear cells in the presence of rhIL-2, Medium (cpm ± DS): 56451 ± 4965 cpm
  Proliferation of human peripheral blood mononuclear cells in the presence of rhIL-2, PHA 10 μg/ml (cpm ± DS): 130524 ± 8929 cpm
  Proliferation of human peripheral blood mononuclear cells in the presence of rhIL-2, aCD3 5 μg/ml (cpm ± DS): 87091 ± 7078 cpm
  Proliferation of human peripheral blood mononuclear cells in the presence of rhIL-2, aCD3 + Con A (cpm ± DS): 154981 ± 15723 cpm
  Proliferation of human peripheral blood mononuclear cells in the presence of rhIL-2, aCD3 + PHA (cpm ± DS): 133621 ± 12440 cpm
Lactone 0.01 μg/ml
  Proliferation of human peripheral blood mononuclear cells, Con A 2 μg/ml (cpm ± DS): 55503 ± 9023 cpm
  Proliferation of human peripheral blood mononuclear cells, Medium (cpm ± DS): 2867 ± 1527 cpm
  Proliferation of human peripheral blood mononuclear cells, PHA 10 μg/ml (cpm ± DS): 71092 ± 3555 cpm
  Proliferation of human peripheral blood mononuclear cells, aCD3 5 μg/ml (cpm ± DS): 40378 ± 219 cpm
  Proliferation of human peripheral blood mononuclear cells, aCD3 + Con A (cpm ± DS): 93139 ± 3070 cpm
  Proliferation of human peripheral blood mononuclear cells, aCD3 + PHA (cpm ± DS): 67011 ± 8270 cpm
  Proliferation of human peripheral blood mononuclear cells in the presence of rhIL-2, Con A 2 μg/ml (cpm ± DS): 54196 ± 80 cpm
  Proliferation of human peripheral blood mononuclear cells in the presence of rhIL-2, Medium (cpm ± DS): 42568 ± 8631 cpm
  Proliferation of human peripheral blood mononuclear cells in the presence of rhIL-2, PHA 10 μg/ml (cpm ± DS): 106754 ± 698 cpm
  Proliferation of human peripheral blood mononuclear cells in the presence of rhIL-2, aCD3 5 μg/ml (cpm ± DS): 39771 ± 3258 cpm
  Proliferation of human peripheral blood mononuclear cells in the presence of rhIL-2, aCD3 + Con A (cpm ± DS): 130949 ± 16623 cpm
  Proliferation of human peripheral blood mononuclear cells in the presence of rhIL-2, aCD3 + PHA (cpm ± DS): 94165 ± 15647 cpm
Lactone 1 μg/ml
  Proliferation of human peripheral blood mononuclear cells, Con A 2 μg/ml (cpm ± DS): 13294 ± 3395 cpm
  Proliferation of human peripheral blood mononuclear cells, Medium (cpm ± DS): 1805 ± 1870 cpm
  Proliferation of human peripheral blood mononuclear cells, PHA 10 μg/ml (cpm ± DS): 25118 ± 6642 cpm
  Proliferation of human peripheral blood mononuclear cells, aCD3 5 μg/ml (cpm ± DS): 1286 ± 255 cpm
  Proliferation of human peripheral blood mononuclear cells, aCD3 + Con A (cpm ± DS): 829 ± 484 cpm
  Proliferation of human peripheral blood mononuclear cells, aCD3 + PHA (cpm ± DS): 8689 ± 5361 cpm
  Proliferation of human peripheral blood mononuclear cells in the presence of rhIL-2, Con A 2 μg/ml (cpm ± DS): 71210 ± 5211 cpm
  Proliferation of human peripheral blood mononuclear cells in the presence of rhIL-2, Medium (cpm ± DS): 9548 ± 808 cpm
  Proliferation of human peripheral blood mononuclear cells in the presence of rhIL-2, PHA 10 μg/ml (cpm ± DS): 110507 ± 698 cpm
  Proliferation of human peripheral blood mononuclear cells in the presence of rhIL-2, aCD3 5 μg/ml (cpm ± DS): 36280 ± 77 cpm
  Proliferation of human peripheral blood mononuclear cells in the presence of rhIL-2, aCD3 + Con A (cpm ± DS): 66429 ± 9241 cpm
  Proliferation of human peripheral blood mononuclear cells in the presence of rhIL-2, aCD3 + PHA (cpm ± DS): 88220 ± 3174 cpm
Lactone 10 μg/ml
  Proliferation of human peripheral blood mononuclear cells, Con A 2 μg/ml (cpm ± DS): 48 ± 7 cpm
  Proliferation of human peripheral blood mononuclear cells, Medium (cpm ± DS): 72 ± 72 cpm
  Proliferation of human peripheral blood mononuclear cells, PHA 10 μg/ml (cpm ± DS): 71 ± 14 cpm
  Proliferation of human peripheral blood mononuclear cells, aCD3 5 μg/ml (cpm ± DS): 119 ± 7 cpm
